Laboratory results: US20240325489A1, “CONNEXIN 43 FOR USE IN THE TREATMENT OF RETINOBLASTOMA PROTEIN POSITIVE TUMOURS” (FUNDACIÓN PROFESOR NOVOA SANTOS, priority 2021, published 2024)
Entries after “also recorded” stand apart in the source; their conditions may differ.

Key:
MCF7 cells [1] = test: Colony formation assay; assay type: cell-based, human; conditions: for reduction in cell proliferation: FIG. 3c, MCF7, 500 nM Palbociclib 7 days, compared with untreated control
Protocol: (§1) Retroviral infection was used to overexpress Cx43 in MCF7 cells. Retroviral particles were generated by transfecting pLPCX-Cx43 and pLPCX-EV plasmids, kindly donated by Dr. Trond Aasen, and retroviral helper plasmids (vsvg and gag-pol) with Polyethylenimine (PEI) in HEK293T packaging cells for 48 h. The supernatant was then filtered with 0.45 μm filters and applied to MCF7 cells in the presence of 4 μg/ml polybrene (hexadimethrine bromide; Sigma-Aldrich) following 3 rounds of infection. Cells were subsequently selected with the appropriate antibiotic resistance using 0.5 μg/ml puromycin (Sigma).
(§2) Cells were treated with 250 nM of Palbociclib (PD0332991) (APExBIO), 500 nM Abemaciclib (LY2835219) (Selleckchem) or 500 nM Ribociclib (LEE011) (Selleckchem) for 7 days. All treatments were done using DMEM supplemented with 10% FBS and 100 U/mL penicillin and 100 μg/ml streptomycin. Media was replaced every 2 days.
(§3) Colony formation assays were performed plating 5×10^3 to 5×10^4 cells per well onto 6-12 well plates and grown for 7-15 days. Medium was replaced every 48 h. The cells were washed with warm Saline Solution and fixed with cold 4% PFA for 15 min. Cells were washed with PBS and stained with 0.05% of crystal violet (Sigma-Aldrich) for 15 min. After staining, the cells were washed with distilled water and dried at room temperature. The colonies were quantified by diluting crystal violet in 30% acetic acid and 100 μL of the solution was collected to measure the absorbance at 570 nm using a NanoQuant microplate reader Infinite M200 (TECAN).
HEK 293T cells were seeded onto 162 cm^2 culture flasks (Corning, Sigma-Aldrich) until confluence (80%-90%). Cells were washed three times with PBS and cultured for 48 h in DMEM 0% FBS. Supernatants were collected and centrifuged at 1800 rpm for 5 min. Pellet was discarded and supernatants were filtered through a 0.22 μm filter and then the filtered supernatants were centrifuged at 100,000 g for 90 min at 4° C. (Optimal-90K ultracentrifuge) using 70 Ti rotor (Beckman Coulter). Supernatants were discarded and pellet-containing sEVs were washed with PBS and centrifuged at 100,000 g for 90 min at 4° C. The pellet with sEVs was resuspended in culture medium. Target cells (MCF7 or T47D cells) were treated with sEVs in the presence/absence of CDK 4/6 inhibitors for 48 h. 3 rounds of treatment were performed. For NTA Nanosight NS300 analysis and sEV protein and RNA content determination, a second ultracentrifugation with PBS was performed, and sEV pellet was resuspended in PBS. […]

[2] = tested on: MCF7 cells expressing the vector control (EV); test: IC50 calculation, Palbociclib dose-response, crystal violet; assay type: cell-based; conditions: Homo sapiens, 168 h; MCF7 EV (no Cx43), 7 days treatment, absorbance 570 nm
Protocol: (§4) Rb positive cell lines MCF7 (breast cancer), T47D (breast cancer) and A375 (melanoma) were cultured in Dulbecco's modified Eagle's medium (DMEM) (Lonza) supplemented with 10% fetal bovine serum (FBS) (Gibco, Thermo Fisher Scientific) and 100 U/mL penicillin and 100 μg/ml streptomycin (Gibco, Thermo Fisher Scientific). HT29 (colon adenocarcinoma) was cultured in McCoy'S 5A medium (Sigma-Aldrich) supplemented with 10% FBS and 100 U/mL penicillin and 100 μg/ml streptomycin. Cells were maintained at 37° C. in 5% CO2 humidified incubator (SANYO CO2). The medium was changed every 2 days.
as §1, with “Cells were subsequently selected with the appropriate antibiotic resistance using 0.5 μg/ml puromycin (Sigma).” left out
(§5) IC50s were calculated using cell cultures from MCF7 (EV and Cx43) and T47D cells treated with different concentrations of the CDK4/6 inhibitor Palbociclib for 7 days. Cells were stained with crystal violet and cell number was assessed measuring the absorbance at 570 nm.

[3] = tested on: MCF7 cells overexpressing Cx43 (MCF7 Cx43); test: as above; assay type: cell-based; conditions: Homo sapiens, 168 h; MCF7 containing Cx43, 7 days treatment, absorbance 570 nm
Protocol: as §4
as §1, with “Cells were subsequently selected with the appropriate antibiotic resistance using 0.5 μg/ml puromycin (Sigma).” left out
as §5

T47D cells [4] = test: as above; assay type: cell-based; conditions: Homo sapiens, 168 h; T47D (lower Cx43 than MCF7-Cx43), 7 days treatment
Protocol: as §4, with “days. IC50s were calculated using cell cultures from MCF7 (EV and Cx43) and T47D cells treated with different concentrations of the CDK4/6 inhibitor Palbociclib for 7 days. Cells were stained with crystal violet and cell number was assessed measuring the absorbance at 570 nm.” for “days.”

A375 melanoma cells = test: Colony formation assay; assay type: cell-based, human; conditions: A375 Cx43 vs EV, 7 days, 250 nM Palbociclib, 500 nM Abemaciclib and Ribociclib
Protocol: (§6) Cell lines (A375 and HT29) were transfected by electroporation to overexpress Cx43. The Amaxa® Cell Line Nucleofector® Kit V (Lonza) was used to transfect cells in a Cell Line Nucleofector™ Device (Lonza). A million cells were harvested and resuspended in 100 μL of Nucleofector® solution. 3 μg of the corresponding plasmid was added, and the mixture was transferred into an electroporation cuvette using the U-28 program. Cell lines were transfected with pIRESpuro2 plasmid construct (Clontech) containing the human Cx43 sequence, kindly donated by Arantxa Tabernero (Institute of Neuroscience of Castilla y León, University of Salamanca, Spain). The transfected cells were seeded in culture medium and 24 hours (h) post-transfection the medium was replaced with complete medium containing puromycin dihydrochloride (Tocris, Bioscience) at different concentrations depending of the cell line (0.5 μg/mL to 2 μg/mL). […]
(§7) Colony formation assays were performed plating 5×10^3 to 5×10^4 cells per well onto 6-12 well plates and grown for 7-15 days. […] The colonies were quantified by diluting crystal violet in 30% acetic acid and 100 μL of the solution was collected to measure the absorbance at 570 nm using a NanoQuant microplate reader Infinite M200 (TECAN).

T47D cells [5] = test: Colony formation assay; assay type: cell-based; conditions: 7 days treatment
Protocol: as §2, §3
HEK 293T cells were seeded onto 162 cm^2 culture flasks (Corning, Sigma-Aldrich) until confluence (80%-90%). Cells were washed three times with PBS and cultured for 48 h in DMEM 0% FBS. Supernatants were collected and centrifuged at 1800 rpm for 5 min. Pellet was discarded and supernatants were filtered through a 0.22 μm filter and then the filtered supernatants were centrifuged at 100,000 g for 90 min at 4° C. […]

[6] = tested on: HT29 colon adenocarcinoma cells; test: Proliferation of colon cells (colony formation); assay type: cell-based; conditions: HT29 Cx43 vs EV, 7 days, 250 nM Palbociclib, 500 nM Abemaciclib and Ribociclib
Protocol: as §6, §7

MCF7 cells [7] = test: Senescence and apoptosis markers (western-blot, qPCR, SA-β-galactosidase); assay type: cell-based, human
Protocol: Cells were grown onto coverslips and fixed with 4% paraformaldehyde (PFA) for 10 min at room temperature (RT). Cells were then washed twice with PBS and permeabilized by incubation with 0.2% Triton X-100 (Sigma) in PBS for 10 min at RT. After a PBS wash, cells were blocked 30 min at RT using 1% BSA in PBS supplemented with 0.1% Tween-20 (PBST). Primary antibodies were diluted in 1% BSA-PBST and incubated overnight (anti-Cx43 (#C6219), Sigma-Aldrich 1:1000; anti-Tubulin (T9026). Cells were then washed with PBS and incubated with secondary antibodies for 1 h at RT. HRP-conjugated secondary antibodies used were anti-mouse (NA-931, Sigma-Aldrich) and anti-rabbit ([…], Sigma-Aldrich). Cells were washed with PBS and fixed with 4% paraformaldehyde for 15 mins at room temperature. […] (Senescence Cells Histochemical Staining Kit Ref […]; Sigma). Cells were imaged using a light microscope at 20× magnification and single representative images of each well were taken. Total RNA was isolated from cells using TRI Reagent® RT (Vitro Bio) according to manufacturer's protocol. 200 μL of chloroform were added to the tubes and samples were incubated for 10 min at 4° C. and then centrifugated at 14,000 g for 15 min at 4° C. After centrifugation, the aqueous phase (upper) are obtained and transferred to a new tube with 500 μL of isopropanol and samples were vortexed 15 sec. The tubes centrifugated at 14,000 g for 15 min at 4° C. Supernatant was discarded, and the RNA pellets were washed with 1 mL of 70% ethanol and centrifugated for 5 min at 7,000 g at 4° C. The supernatants were discarded, and RNA pellets were air dry. RNA was treated with DNase I, RNase free (Thermo Fisher Scientific) following manufacturer's protocol. RNA samples were quantified in a Nanodrop® ND-1000 (Thermo Fisher Scientific). 1 μg of RNA was used to synthesize complementary DNA (cDNA) with the SuperscriptTM IV VILOTM Master Mix (Invitrogen, Thermo Fisher Scientific) following manufacturer's protocol. cDNA samples are quantified in a Nanodrop® ND-1000 (Thermo Fisher Scientific) and resuspended in DNase/RNase/Protease-free water (Sigma-Aldrich). 5 μL of cDNA (1 μg) were mixed with 0.5 μL of primer mix (10 μM each primer), 10 μL of Applied BiosystemsTM PowerUPTM SYBRTM Green Master Mix (Applied Biosystems, Thermo Fisher Scientific) and complete with dH2O until 20 μL per well on LightCycler® 480 System (Roche). The program consisted on a first denaturing cycle of 10 min at 95° C. followed by 30-55 amplification cycles for 10 seconds (sec) at 95° C., 30 sec at 60° C. for annealing and 12 sec at 72° C. for extension. The primers used are listed below: […]

MCF7 cells [8] = test: Hemichannel activity (ATP release) and gap-junction communication (parachute assay); assay type: cell-based, human; conditions: MCF7 upon Cx43 restoration vs EV

Compound | reduction in cell proliferation (MCF7 cells [1]) | IC50 [2] [nM] | IC50 [3] [nM] | IC50 (T47D cells [4]) [nM] | effect of Cx43 overexpression on the CDK4/6 inhibitor's effect on cell proliferation (MCF7 cells [1]; MCF7 Cx43 vs EV, 7 days, colony formation) | effect of Cx43 overexpression on inhibitor efficacy (reduction in proliferation) (A375 melanoma cells) | colony formation capacity (T47D cells [5]) | effect of Cx43 overexpression on inhibitor efficacy (reduction in proliferation) [6] | cell proliferation / colony formation capacity (MCF7 cells [1]; MCF7, 7 days) | β-galactosidase activity (MCF7 cells [7]; MCF7, SA-β-galactosidase staining) | apoptotic markers Bax and Bcl2 protein (MCF7 cells [7]; MCF7, western-blot) | levels of senescent markers p21 and p53 (MCF7 cells [7]; MCF7, western-blot, vs vector control (EV)) | SASP factors IL6, IL8, MMP9 (qPCR) (MCF7 cells [7]; MCF7 overexpressing Cx43 vs EV) | hemichannels activity and gap-junction intercellular communication (MCF7 cells [8])
CC(=O)c1c(C)c2cnc(Nc3ccc(N4CCNCC4)cn3)nc2n(C2CCCC2)c1=O [Palbociclib] | around 40% | 282 | 66.8 | 121 | – | – | – | – | – | – | – | – | – | –
CN(C)C(=O)c1cc2cnc(Nc3ccc(N4CCNCC4)cn3)nc2n1C1CCCC1 [Ribociclib] | – | – | – | – | enhances the effect | increases the efficacy | effectively respond | increases the efficacy | – | – | – | – | – | –
Cx43: connexin 43 overexpressed in tumour cells by retroviral vector or plasmid | 50% | – | – | – | – | – | – | – | induces proliferation arrest; also recorded: significantly reduced cell proliferation and colony formation capacity | increases β-galactosidase activity | increases the pro-apoptotic protein Bax and reduces Bcl2 | increases the levels of the senescent markers p21 and p53 | increases the secretion of different cytokines such as IL6, IL8 and MMP9 | increase in hemichannels activity and gap-junction intercellular communication
